Values of other authors as cited in US20150079136A1, “CONTROLLED RELEASE PHARMACEUTICAL FORMULATIONS OF DIRECT THROMBIN INHIBITORS” (RUBICON RESEARCH PRIVATE LIMITED, priority 2012, published 2015).
Counter-ions that a name gives are not always drawn. Like-named read-outs stand apart in the source and are kept apart here.

How the values were obtained:
P-glycoprotein = P-glycoprotein (Homo sapiens, UniProt P08183)
[1] = not given; remark: listed apart in the source
[2] = not given; remark: listed apart in the source

P-glycoprotein, sequence (P08183 whole entry): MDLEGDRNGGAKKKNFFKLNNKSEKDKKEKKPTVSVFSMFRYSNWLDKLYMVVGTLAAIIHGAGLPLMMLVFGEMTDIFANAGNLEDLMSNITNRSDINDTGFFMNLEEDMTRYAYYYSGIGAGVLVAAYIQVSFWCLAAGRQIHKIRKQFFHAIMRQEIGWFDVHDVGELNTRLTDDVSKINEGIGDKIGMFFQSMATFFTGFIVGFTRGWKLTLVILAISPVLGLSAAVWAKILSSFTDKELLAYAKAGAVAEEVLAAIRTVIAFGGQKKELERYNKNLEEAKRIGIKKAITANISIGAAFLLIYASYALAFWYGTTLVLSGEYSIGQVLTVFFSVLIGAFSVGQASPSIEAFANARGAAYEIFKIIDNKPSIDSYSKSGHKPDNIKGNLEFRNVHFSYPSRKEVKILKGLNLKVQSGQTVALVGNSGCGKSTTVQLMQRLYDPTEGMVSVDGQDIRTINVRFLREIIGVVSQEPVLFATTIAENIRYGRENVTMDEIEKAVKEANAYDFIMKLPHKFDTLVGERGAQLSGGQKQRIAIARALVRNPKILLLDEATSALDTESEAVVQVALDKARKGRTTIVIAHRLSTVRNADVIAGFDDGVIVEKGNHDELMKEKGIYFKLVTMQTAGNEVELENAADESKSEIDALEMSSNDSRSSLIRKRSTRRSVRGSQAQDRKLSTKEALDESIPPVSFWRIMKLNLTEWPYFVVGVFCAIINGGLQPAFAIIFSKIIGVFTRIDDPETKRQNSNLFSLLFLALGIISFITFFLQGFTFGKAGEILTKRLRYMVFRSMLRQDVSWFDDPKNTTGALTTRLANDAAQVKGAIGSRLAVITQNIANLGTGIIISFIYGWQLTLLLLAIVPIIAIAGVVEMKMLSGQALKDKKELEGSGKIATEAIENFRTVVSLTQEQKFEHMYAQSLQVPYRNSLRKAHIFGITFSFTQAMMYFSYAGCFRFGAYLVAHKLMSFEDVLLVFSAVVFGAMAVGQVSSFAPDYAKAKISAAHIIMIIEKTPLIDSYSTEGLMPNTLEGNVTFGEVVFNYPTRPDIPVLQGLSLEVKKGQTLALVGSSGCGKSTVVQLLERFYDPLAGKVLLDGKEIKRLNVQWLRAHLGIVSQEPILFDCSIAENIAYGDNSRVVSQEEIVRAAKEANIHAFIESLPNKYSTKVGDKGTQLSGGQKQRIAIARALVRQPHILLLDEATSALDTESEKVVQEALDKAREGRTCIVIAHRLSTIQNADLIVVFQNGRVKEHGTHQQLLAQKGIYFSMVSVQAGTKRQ

effect of high-fat meal on the bioavailability of dabigatran (coadministration with a high-fat meal)	absolute bioavailability of dabigatran (following oral administration of dabigatran etexilate)	increase in oral bioavailability (marketed formulation, pellets taken without the capsule shell vs intact capsule) [%]	substrate of efflux transporter P-glycoprotein (P-glycoprotein)	solubility in acidic media ([1]; acidic media)	solubility in neutral and basic media ([1]; neutral and basic media)	BCS class ([1]; poor aqueous solubility but good membrane permeability)	elimination half life (multiple dosing)	elimination half life (single dosing) [h]	sensitivity to light irradiation ([2]; light irradiation)	hygroscopicity ([2]; powder)	stability in the solid state ([2]; solid state)	SMILES	degradation in the presence of moisture ([2]; presence of moisture)
no effect	3-7%	75	substrate	–	–	–	–	–	–	–	–	CCCCCCOC(=O)NC(=N)c1ccc(NCc2nc3cc(C(=O)N(CCC(=O)OCC)c4ccccn4)ccc3n2C)cc1 [dabigatran etexilate, 1-methyl-2-[N-[4-(N-n-hexyloxycarbonylamidino)phenyl]aminomethyl]benzimidazol-5-ylcarboxylic acid-N-(2-pyridyl)-N-(2 ethoxycarbonylethyl)amides]	–
–	–	–	–	rather high solubility	very poor solubility	Class II	about 8 hours	12 to 17	not sensitive	non-hygroscopic	stable	CCCCCCOC(=O)NC(=N)c1ccc(NCc2nc3cc(C(=O)N(CCC(=O)OCC)c4ccccn4)ccc3n2C)cc1 [DEM, dabigatran etexilate mesylate]	predominantly undergoes degradation by hydrolytic pathways
